Assay results taken from patent US20080171095A1, “Carnosine-related compounds for preventing and treating impaired neurovascular blood flow” (Michigan State University, priority 2005, published 2008).

Test system: Male C57BL/6J mice, permanent occlusion of the middle cerebral artery (focal ischemia)
Assay: Focal ischemia in mice: permanent occlusion of the middle cerebral artery, infarct volume by 2,3,5-triphenyl-tetrazolium chloride staining
Format: in vivo
Conditions: assessed 24 hours after occlusion; for Reduction of infarct volume versus saline-injected control mice: 30 minutes before artery occlusion (FIG. 1)
Description: Male C57BL/6J mice were subjected to a permanent occlusion of the middle cerebral artery. For prophylactic studies, carnosine (100 mg/kg or 500 mg/kg, I.P.) was administered thirty (30) minutes (FIG. 1) or sixty (60) minutes (FIG. 2) before artery occlusion. For treatment studies, carnosine (1000 mg/kg, I.P.) was administered sixty (60) minutes after artery occlusion (FIG. 2).
Damage to the neural tissue (i.e., infarct volume) was assessed twenty-four (24) hours after occlusion by 2,3,5-triphenyl-tetrazolium chloride staining. Infarct volumes were reduced by 49% and 65% in mice prophylactically given 100 mg/kg and 500 mg/kg carnosine, respectively, versus saline-injected control mice. (FIG. 1) This protective dose dependence was reproduced in a second experiment that compared a post-occlusion carnosine administration. In this experiment, infarct volumes were reduced by 40% and 52%, respectively in mice prophylactically given 100 mg/kg and 500 mg/kg carnosine. A 40% reduction in infarct volume was also observed when mice were administered 1000 mg/kg carnosine after the occlusion.

## NCCC(=O)N[C@@H](Cc1c[nH]cn1)C(=O)O [carnosine, β-alanyl-L-histidine]
100 mg/kg I.P., prophylactic
  Reduction of infarct volume versus saline-injected control mice: 49%
500 mg/kg I.P., prophylactic
  Reduction of infarct volume versus saline-injected control mice: 65%
Second experiment (FIG. 2): 100 mg/kg I.P., prophylactic, 60 minutes before artery occlusion
  Reduction of infarct volume: 40%
Second experiment (FIG. 2): 500 mg/kg I.P., prophylactic, 60 minutes before artery occlusion
  Reduction of infarct volume: 52%
Second experiment (FIG. 2): 1000 mg/kg I.P., treatment, 60 minutes after artery occlusion
  Reduction of infarct volume: 40%
